Literature values, collected in patent US10772323B2, “Benzoic acid herbicide composition” (NUFARM AUSTRALIA LIMITED, priority 2015, dated 2020).

Settings: acid form; 25° C.

water solubility: about 4500 mg/L
Structure (SMILES): COc1c(Cl)ccc(Cl)c1C(=O)O [dicamba, 3,6-dichloro-2-methoxybenzoic acid]
